Experiments:
[1] = target: acetylcholinesterase; experiment: Acetylcholinesterase Inhibition Assay (photometric method of Ellman et al.); format: biochemical
[2] = tested on: Scopolamine Induced Memory Deficit; experiment: Dark Avoidance Assay (scopolamine induced memory deficit reversal); format: in vivo; settings: s.c., mice, retest after 24 hours
Method: In this assay mice are tested for their ability to remember an unpleasant stimulus for a period of 24 hours. A mouse is placed in a chamber that contains a dark compartment; a strong incadescent light drives it to the dark compartment,where an electric shock is administered through metal plates on the floor. The animal is removed from the testing apparatus and tested again, 24 hours later, for the ability to remember the electric shock.
If scopolamine, an anticholinergic that is known to cause memory impairment, is administered before an animal's initial exposure to the test chamber, the animal re-enters the dark compartment shortly after being placed in the test chamber 24 hours later. This effect of scopolamine is blocked by an active test compound, resulting in a greater interval before re-entry into the dark compartment.
The results for an active compound are expressed as the percent of a group of animals in which the effect of scopolamine is blocked, as manifested by an increased interval between being placed in the test chamber and re-entering the dark compartment.

acetylcholinesterase, sequence (P22303 32-614): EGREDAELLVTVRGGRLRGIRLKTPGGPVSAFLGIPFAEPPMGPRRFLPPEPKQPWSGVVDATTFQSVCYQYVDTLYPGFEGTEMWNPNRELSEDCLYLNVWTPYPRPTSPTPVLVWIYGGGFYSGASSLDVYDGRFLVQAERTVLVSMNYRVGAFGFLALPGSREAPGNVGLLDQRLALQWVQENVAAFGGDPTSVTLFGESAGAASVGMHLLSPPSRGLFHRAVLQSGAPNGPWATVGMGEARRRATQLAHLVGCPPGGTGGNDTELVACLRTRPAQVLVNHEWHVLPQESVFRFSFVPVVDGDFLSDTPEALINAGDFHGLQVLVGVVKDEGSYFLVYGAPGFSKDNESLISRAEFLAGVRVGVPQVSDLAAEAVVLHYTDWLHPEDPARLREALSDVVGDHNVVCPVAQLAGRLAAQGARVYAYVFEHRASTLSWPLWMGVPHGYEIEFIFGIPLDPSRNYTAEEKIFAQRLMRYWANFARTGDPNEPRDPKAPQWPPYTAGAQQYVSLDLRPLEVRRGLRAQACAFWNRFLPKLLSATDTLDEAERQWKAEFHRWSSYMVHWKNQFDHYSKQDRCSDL

Row | SMILES | IC50 [1] | % of Animals with Scopolamine Induced Memory Deficit Reversal ([2]; 0.31 mg/kg of body weight) | % of Animals with Scopolamine Induced Memory Deficit Reversal ([2]; 5.0 mg/kg of body weight) | % of Animals with Scopolamine Induced Memory Deficit Reversal ([2]; 0.63 mg/kg of body weight)
1 | Oc1ccccc1C=Nc1c2c(nc3ccccc13)CCCC2 [9-Amino-N-[(2-hydroxyphenyl)methylene]-1,2,3,4-tetrahydroacridine, hemi-fumarate] | 5.1 µM | – | – | –
2 | C(=Nc1c2c(nc3ccccc13)CCCC2)c1ccccc1 [N-Phenylmethylene-1,2,3,4-tetrahydro-9-acridinamine] | 0.23 µM | 27% | 60% | –
3 | CC[C@@H]1C(=O)OC[C@@H]1Cc1cncn1C [Pilocarpine, reference compound] | – | – | 13% | –
4 | Nc1c2c(nc3ccccc13)CCCC2 [Tacrine, 9-amino-1,2,3,4-tetrahydroacridine, reference compound] | – | – | – | 13%

From patent US5013741A, “N-[substituted alkylidene]-1,2,3,4-tetrahydro-9-acridinamines useful for enhancing the cholinergic function in a mammal” (priority 1988, dated 1991)
